The values that follow come from patent publication US20260365682A1, “MODULATORS OF TNF-ALPHA ACTIVITY” (Forward Therapeutics, Inc., priority 2022, published 2026).

The target of this experiment is T1, TNF-α (Homo sapiens, UniProt P01375).
T1 construct: purchased R&D 210-TA-020/CF
As to the kind of experiment: TNF-α Induced HEK Blue Cellular Assay (secreted alkaline phosphatase expression, QUANTI-Blue). Particulars: HEK Blue TNFα reporter cells; TNF-α 100 μg/ml; 24 hrs at 37° C.; inhibition of secreted alkaline phosphatase; read-out: IC50 value. Type of experiment: cell-based. In outline: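 Compound was serially diluted from […] to 0.5 nM final, then incubated with 10,000 HEK Blue TNFα reporter cells per well and […] TNF-α for 24 h at 37° C. SEAP output was read by QUANTI-Blue absorbance at 620 nm. Inhibition was background-corrected against DMSO controls with and without stimulation, and IC50 was fitted with a 4-parameter logistic equation.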

T1 sequence (P01375 77-233 limits assumed): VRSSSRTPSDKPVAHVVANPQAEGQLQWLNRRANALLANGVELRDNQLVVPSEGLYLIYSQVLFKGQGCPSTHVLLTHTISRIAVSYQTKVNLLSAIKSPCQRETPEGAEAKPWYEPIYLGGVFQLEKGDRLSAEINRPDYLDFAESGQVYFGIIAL

In the case of `[2H]C([2H])([2H])N1C(=O)c2cccc(OC(F)F)c2[C@H]2C[C@@H]1c1nc3ccc(C#CC4CCCCN4)cc3n12` (stereo partly drawn) [Example 47, (7R,14R)-1-(difluoromethoxy)-6-(methyl-d3)-11-(piperidin-2-ylethynyl)-6,7-dihydro-7,14-methanobenzo[f]benzo[4,5]imidazo[1,2-a][1,4]diazocin-5(14H)-one], the IC50 lay within 10000 to 30000 nM.
In the case of `[2H]C([2H])([2H])N1C(=O)c2cccc(OC(F)F)c2[C@H]2C[C@@H]1c1nc3ccc(C#CC4CCOCC4)cc3n12` [Example 48, (7R,14R)-1-(difluoromethoxy)-6-(methyl-d3)-11-((tetrahydro-2H-pyran-4-yl)ethynyl)-6,7-dihydro-7,14-methanobenzo[f]benzo[4,5]imidazo[1,2-a][1,4]diazocin-5(14H)-one], the IC50 was under 100 nM.
As for `[2H]C([2H])([2H])N1C(=O)c2cccc(OC(F)F)c2[C@H]2C[C@@H]1c1nc3ccc(C#CC4CCCCO4)cc3n12` (stereo partly drawn) [Example 49, (7R,14R)-1-(difluoromethoxy)-6-(methyl-d3)-11-((tetrahydro-2H-pyran-2-yl)ethynyl)-6,7-dihydro-7,14-methanobenzo[f]benzo[4,5]imidazo[1,2-a][1,4]diazocin-5(14H)-one], the IC50 was 100 to 1000 nM.
With `[2H]C([2H])([2H])N1C(=O)c2cccc(OC(F)F)c2[C@H]2C[C@@H]1c1nc3ccc(C#C[C@@H](C)N)cc3n12` [Example 50, (7R,14R)-11-((R)-3-aminobut-1-yn-1-yl)-1-(difluoromethoxy)-6-(methyl-d3)-6,7-dihydro-7,14-methanobenzo[f]benzo[4,5]imidazo[1,2-a][1,4]diazocin-5(14H)-one] the figure was under 100 nM; with `[2H]C([2H])([2H])N1C(=O)c2cccc(OC(F)F)c2[C@H]2C[C@@H]1c1nc3ccc(C#C[C@H](C)N)cc3n12` [Example 51, (7R,14R)-11-((S)-3-aminobut-1-yn-1-yl)-1-(difluoromethoxy)-6-(methyl-d3)-6,7-dihydro-7,14-methanobenzo[f]benzo[4,5]imidazo[1,2-a][1,4]diazocin-5(14H)-one], under 100 nM.
For the compound `[2H]C([2H])([2H])N1C(=O)c2cccc(OC(F)F)c2[C@H]2C[C@@H]1c1nc3ccc(C#CC4CCNCC4)cc3n12` [Example 52, (7R,14R)-1-(difluoromethoxy)-6-(methyl-d3)-11-(piperidin-4-ylethynyl)-6,7-dihydro-7,14-methanobenzo[f]benzo[4,5]imidazo[1,2-a][1,4]diazocin-5(14H)-one], the IC50 was under 100 nM.
The value for `[2H]C([2H])([2H])N1C(=O)c2cccc(OC(F)F)c2[C@H]2C[C@@H]1c1nc3ccc(C#CC4CCCO4)cc3n12` (stereo partly drawn) [Example 53, (7R,14R)-1-(difluoromethoxy)-6-(methyl-d3)-11-((tetrahydrofuran-2-yl)ethynyl)-6,7-dihydro-7,14-methanobenzo[f]benzo[4,5]imidazo[1,2-a][1,4]diazocin-5(14H)-one] was under 100 nM.
Consider `[2H]C([2H])([2H])N1C(=O)c2cccc(OC(F)F)c2[C@H]2C[C@@H]1c1nc3ccc(C#C[C@@H](C)NCC)cc3n12` [Example 54, (7R,14R)-1-(difluoromethoxy)-11-((R)-3-(ethylamino)but-1-yn-1-yl)-6-(methyl-d3)-6,7-dihydro-7,14-methanobenzo[f]benzo[4,5]imidazo[1,2-a][1,4]diazocin-5(14H)-one], for which the IC50 is 10000 to 30000 nM.
With `[2H]C([2H])([2H])N1C(=O)c2cccc(OC(F)F)c2[C@H]2C[C@@H]1c1nc3ccc(C#C[C@H](C)NCC)cc3n12` [Example 55, (7R,14R)-1-(difluoromethoxy)-11-((S)-3-(ethylamino)but-1-yn-1-yl)-6-(methyl-d3)-6,7-dihydro-7,14-methanobenzo[f]benzo[4,5]imidazo[1,2-a][1,4]diazocin-5(14H)-one] the figure was 10000 to 30000 nM.
The value for `[2H]C([2H])([2H])N1C(=O)c2cccc(OC(F)F)c2[C@H]2C[C@@H]1c1nc3ccc(C#CCOC(C)(C)C)cc3n12` [Example 56, (7R,14R)-11-(3-(tert-butoxy)prop-1-yn-1-yl)-1-(difluoromethoxy)-6-(methyl-d3)-6,7-dihydro-7,14-methanobenzo[f]benzo[4,5]imidazo[1,2-a][1,4]diazocin-5(14H)-one] was under 100 nM; that for `[2H]C([2H])([2H])N1C(=O)c2cccc(OC(F)F)c2[C@H]2C[C@@H]1c1nc3ccc(C#CC4CCN(C)CC4)cc3n12` [Example 57, (7R,14R)-1-(difluoromethoxy)-6-(methyl-d3)-11-((1-methylpiperidin-4-yl)ethynyl)-6,7-dihydro-7,14-methanobenzo[f]benzo[4,5]imidazo[1,2-a][1,4]diazocin-5(14H)-one] was 100 to 1000 nM; that for `[2H]C([2H])([2H])N1C(=O)c2cccc(OC(F)F)c2[C@H]2C[C@@H]1c1nc3ccc(C#C[C@H]4CCCN4)cc3n12` [Example 58, (7R,14R)-1-(difluoromethoxy)-6-(methyl-d3)-11-(((R)-pyrrolidin-2-yl)ethynyl)-6,7-dihydro-7,14-methanobenzo[f]benzo[4,5]imidazo[1,2-a][1,4]diazocin-5(14H)-one] was 10000 to 30000 nM.
For the compound `[2H]C([2H])([2H])N1C(=O)c2cccc(OC(F)F)c2[C@H]2C[C@@H]1c1nc3ccc(C#C[C@@H]4CCCN4)cc3n12` [Example 59, (7R,14R)-1-(difluoromethoxy)-6-(methyl-d3)-11-(((S)-pyrrolidin-2-yl)ethynyl)-6,7-dihydro-7,14-methanobenzo[f]benzo[4,5]imidazo[1,2-a][1,4]diazocin-5(14H)-one], the IC50 is 10000 to 30000 nM.
The value for `[2H]C([2H])([2H])N1C(=O)c2cccc(OC(F)F)c2[C@H]2C[C@@H]1c1nc3ccc(C#CC4CCCNC4)cc3n12` (stereo partly drawn) [Example 60, (7R,14R)-1-(difluoromethoxy)-6-(methyl-d3)-11-(piperidin-3-ylethynyl)-6,7-dihydro-7,14-methanobenzo[f]benzo[4,5]imidazo[1,2-a][1,4]diazocin-5(14H)-one] was under 100 nM; that for `[2H]C([2H])([2H])N1C(=O)c2cccc(OC(F)F)c2[C@H]2C[C@@H]1c1nc3ccc(C#CCN(C)C)cc3n12` [Example 61, (7R,14R)-1-(difluoromethoxy)-11-(3-(dimethylamino)prop-1-yn-1-yl)-6-(methyl-d3)-6,7-dihydro-7,14-methanobenzo[f]benzo[4,5]imidazo[1,2-a][1,4]diazocin-5(14H)-one] was 100 to 1000 nM; that for `[2H]C([2H])([2H])N1C(=O)c2cccc(OC(F)F)c2[C@H]2C[C@@H]1c1nc3ccc(C#CCN(CC)CC)cc3n12` [Example 62, (7R,14R)-11-(3-(diethylamino)prop-1-yn-1-yl)-1-(difluoromethoxy)-6-(methyl-d3)-6,7-dihydro-7,14-methanobenzo[f]benzo[4,5]imidazo[1,2-a][1,4]diazocin-5(14H)-one] was under 100 nM.
As for `[2H]C([2H])([2H])N1C(=O)c2cccc(OC(F)F)c2[C@H]2C[C@@H]1c1nc3ccc(C#CC4CCCN(C)C4)cc3n12` (stereo partly drawn) [Example 63, (7R,14R)-1-(difluoromethoxy)-6-(methyl-d3)-11-((1-methylpiperidin-3-yl)ethynyl)-6,7-dihydro-7,14-methanobenzo[f]benzo[4,5]imidazo[1,2-a][1,4]diazocin-5(14H)-one], the IC50 was under 100 nM.
The value for `[2H]C([2H])([2H])N1C(=O)c2cccc(OC(F)F)c2[C@H]2C[C@@H]1c1nc3ccc(C#CC(C)(C)N)cc3n12` [Example 64, (7R,14R)-11-(3-amino-3-methylbut-1-yn-1-yl)-1-(difluoromethoxy)-6-(methyl-d3)-6,7-dihydro-7,14-methanobenzo[f]benzo[4,5]imidazo[1,2-a][1,4]diazocin-5(14H)-one] was 10000 to 30000 nM; that for `[2H]C([2H])([2H])N1C(=O)c2cccc(OC(F)F)c2[C@H]2C[C@@H]1c1nc3ccc(C#CCNCC)cc3n12` [Example 65, (7R,14R)-1-(difluoromethoxy)-11-(3-(ethylamino)prop-1-yn-1-yl)-6-(methyl-d3)-6,7-dihydro-7,14-methanobenzo[f]benzo[4,5]imidazo[1,2-a][1,4]diazocin-5(14H)-one] was 10000 to 30000 nM.
In the case of `[2H]C([2H])([2H])N1C(=O)c2cccc(OC(F)F)c2[C@H]2C[C@@H]1c1nc3ccc(C#CCNC(C)C)cc3n12` [Example 66, (7R,14R)-1-(difluoromethoxy)-11-(3-(isopropylamino)prop-1-yn-1-yl)-6-(methyl-d3)-6,7-dihydro-7,14-methanobenzo[f]benzo[4,5]imidazo[1,2-a][1,4]diazocin-5(14H)-one], the IC50 lay within 100 to 1000 nM.
In the case of `[2H]C([2H])([2H])N1C(=O)c2cccc(OC(F)F)c2[C@H]2C[C@@H]1c1nc3ccc(C#CCN(C)CC)cc3n12` [Example 67, (7R,14R)-1-(difluoromethoxy)-11-(3-(ethyl(methyl)amino)prop-1-yn-1-yl)-6-(methyl-d3)-6,7-dihydro-7,14-methanobenzo[f]benzo[4,5]imidazo[1,2-a][1,4]diazocin-5(14H)-one], the IC50 fell in the range of 100 to 1000 nM.
Turning to `[2H]C([2H])([2H])N1C(=O)c2cccc(OC(F)F)c2[C@H]2C[C@@H]1c1nc3ccc(C#CC4CN(C)C4)cc3n12` [Example 68, (7R,14R)-1-(difluoromethoxy)-6-(methyl-d3)-11-((1-methylazetidin-3-yl)ethynyl)-6,7-dihydro-7,14-methanobenzo[f]benzo[4,5]imidazo[1,2-a][1,4]diazocin-5(14H)-one], the IC50 is under 100 nM.
With `[2H]C([2H])([2H])N1C(=O)c2cccc(OC(F)F)c2[C@H]2C[C@@H]1c1nc3ccc(C#CC4CNC4)cc3n12` [Example 69, (7R,14R)-11-(azetidin-3-ylethynyl)-1-(difluoromethoxy)-6-(methyl-d3)-6,7-dihydro-7,14-methanobenzo[f]benzo[4,5]imidazo[1,2-a][1,4]diazocin-5(14H)-one], the IC50 lay within 100 to 1000 nM.

By IC50 is commonly meant the point on the concentration scale where inhibition reaches its midpoint.
